From ChEMBL document CHEMBL4619760, “Anti-inflammatory Efficacy of Combined Natural Alkaloid Berberine and S1PR Modulator Fingolimod at Low Doses in Ulcerative Colitis Preclinical Models” (J Nat Prod, 2020)
Activity calls are given as the source filed them. The calls are words filed in the database; no cut-off is given here.

Experiments:
[1] = test system: Mus musculus; assay: Anti-colitis activity against DSS-induced C57BL/6 mouse model of subchronic relapsing colitis assessed as effect on body weight at 0.3 mg/kg, po administered once daily for 14 days starting from day 5 post DSS-challenge and measured after day 12 to day 18; assay type: functional, organism-based
[2] = test system: Mus musculus; assay: Anti-colitis activity against DSS-induced C57BL/6 mouse model of subchronic relapsing colitis assessed as reduction in disease activity index at 0.15 mg/kg, po administered once daily for 14 days starting from day 5 post DSS-challenge cotreated with 20 mg/kg berberine measured after day 12 to day 18; assay type: functional, organism-based
[3] = test system: Mus musculus; assay: Anti-colitis activity against DSS-induced C57BL/6 mouse model of subchronic relapsing colitis assessed as reduction in DSS-induced colon shortening at 0.3 mg/kg, po administered once daily for 14 days starting from day 5 post DSS-challenge; assay type: functional, organism-based
[4] = test system: Mus musculus; assay: Anti-colitis activity against DSS-induced C57BL/6 mouse model of subchronic relapsing colitis assessed as reduction in DSS-induced colon shortening at 0.15 mg/kg, po administered once daily for 14 days starting from day 5 post DSS-challenge cotreated with 20 mg/kg berberine and measured after day 12 to day 18; assay type: functional, organism-based
[5] = test system: Mus musculus; assay: Anti-colitis activity against DSS-induced C57BL/6 mouse model of chronic relapsing colitis assessed as reduction in stool consistency score at 0.3 mg/kg, po administered once daily for 30 days starting from day 13 post DSS-challenge measured on day 43; assay type: functional, organism-based
[6] = test system: Mus musculus; assay: Anti-colitis activity against DSS-induced C57BL/6 mouse model of chronic relapsing colitis assessed as reduction in stool bleeding at 0.3 mg/kg, po administered once daily for 30 days starting from day 13 post DSS-challenge measured on day 43; assay type: functional, organism-based
[7] = test system: Mus musculus; assay: Anti-colitis activity against DSS-induced C57BL/6 mouse model of chronic relapsing colitis assessed as reduction in disease activity index at 0.3 mg/kg, po administered once daily for 30 days starting from day 13 post DSS-challenge and measured on day 43; assay type: functional, organism-based
[8] = test system: Mus musculus; assay: Anti-colitis activity against DSS-induced C57BL/6 mouse model of chronic relapsing colitis assessed as reduction in stool bleeding at 0.15 mg/kg, po administered once daily for 30 days starting from day 13 post DSS-challenge cotreated with 20 mg/kg berberine and measured on day 38; assay type: functional, organism-based
[9] = test system: Mus musculus; assay: Anti-colitis activity against DSS-induced C57BL/6 mouse model of chronic relapsing colitis assessed as reduction in disease activity index at 0.15 mg/kg, po administered once daily for 30 days starting from day 13 post DSS-challenge cotreated with 20 mg/kg berberine and measured on day 24; assay type: functional, organism-based
[10] = test system: Mus musculus; assay: Anti-colitis activity against DSS-induced C57BL/6 mouse model of chronic relapsing colitis assessed as reduction in stool consistency score at 0.15 mg/kg, po administered once daily for 30 days starting from day 13 post DSS-challenge cotreated with 20 mg/kg berberine measured on day 43; assay type: functional, organism-based
[11] = test system: Mus musculus; assay: Anti-colitis activity against DSS-induced C57BL/6 mouse model of chronic relapsing colitis assessed as reversal of DSS-induced colon shortening at 0.3 mg/kg, po administered once daily for 30 days starting from day 13 post DSS-challenge; assay type: functional, organism-based
[12] = test system: Mus musculus; assay: Anti-colitis activity against DSS-induced C57BL/6 mouse model of chronic relapsing colitis assessed as reduction in DSS-induced loss of colon crypt and columnar epithelium at 0.3 mg/kg, po administered once daily for 30 days starting from day 13 post DSS-challenge; assay type: functional, organism-based
[13] = test system: Mus musculus; assay: Anti-colitis activity against DSS-induced C57BL/6 mouse model of chronic relapsing colitis assessed as reduction in DSS-induced inflammatory cell infiltration in colon at 0.3 mg/kg, po administered once daily for 30 days starting from day 13 post DSS-challenge by hematoxylin and eosin staining based light microscopic analysis; assay type: functional, organism-based
[14] = test system: Mus musculus; assay: Anti-colitis activity against DSS-induced C57BL/6 mouse model of chronic relapsing colitis assessed as reduction in DSS-induced multiple erosive lesions in colon at 0.15 mg/kg, po administered once daily for 30 days starting from day 13 post DSS-challenge cotreated with 20 mg/kg berberine by hematoxylin and eosin staining based light microscopic analysis; assay type: functional, organism-based
[15] = test system: Mus musculus; assay: Anti-colitis activity against DSS-induced C57BL/6 mouse model of chronic relapsing colitis assessed as reduction in DSS-induced mononuclear cell infiltration in spleen at 0.15 mg/kg, po administered once daily for 30 days starting from day 13 post DSS-challenge cotreated with 20 mg/kg berberine by hematoxylin and eosin staining based light microscopic analysis; assay type: functional, organism-based
[16] = Toxicity in DSS-induced C57BL/6 mouse model of chronic relapsing colitis assessed as induction of abnormalities in heart at 0.3 mg/kg, po administered once daily for 30 days starting from day 13 post DSS-challenge by hematoxylin and eosin staining based light microscopic analysis; assay type: organism-based; details: in vivo, 720 h
[17] = Toxicity in DSS-induced C57BL/6 mouse model of chronic relapsing colitis assessed as induction of abnormalities in lung at 0.3 mg/kg, po administered once daily for 30 days starting from day 13 post DSS-challenge by hematoxylin and eosin staining based light microscopic analysis; assay type: organism-based; details: in vivo, 720 h
[18] = test system: Mus musculus; assay: Antiinflammatory activity against DSS-induced C57BL/6 mouse model of subchronic relapsing colitis assessed as reduction in TNFalpha mRNA level at 0.3 mg/kg, po administered once daily for 14 days starting from day 5 post DSS-challenge by RT-qPCR analysis; assay type: functional, organism-based
[19] = test system: Mus musculus; assay: Antiinflammatory activity against DSS-induced C57BL/6 mouse model of subchronic relapsing colitis assessed as reduction in TNFalpha mRNA level at 0.15 mg/kg, po administered once daily for 14 days starting from day 5 post DSS-challenge cotreated with 20 mg/kg berberine by RT-qPCR analysis; assay type: functional, organism-based
[20] = test system: Mus musculus; assay: Effect on total S1PR1 expression in DSS-induced C57BL/6 mouse model of subchronic relapsing colitis at 0.15 mg/kg, po administered once daily for 14 days starting from day 5 post DSS-challenge cotreated with 20 mg/kg berberine by Western blot analysis; assay type: ADME, organism-based; details: in vivo, 336 h
[21] = test system: THP-1; assay: Antiinflammatory activity in human THP1 cells assessed as reduction in LPS-induced IL6 mRNA level at 1 uM incubated for 1 hr followed by LPS challenge and measured after 4 to 6 hrs by q-PCR method; assay type: functional, cell-based
[22] = test system: THP-1; assay: Antiinflammatory activity in human THP1 cells assessed as reduction in LPS-induced TNFalpha mRNA level at 1 uM incubated for 1 hr followed by LPS challenge and measured after 4 to 6 hrs by q-PCR method; assay type: functional, cell-based
[23] = test system: THP-1; assay: Antiinflammatory activity in human THP1 cells assessed as reduction in LPS-induced IL6 mRNA level at 0.5 uM cotreated with 0.5 uM berberine incubated for 1 hr followed by LPS challenge and measured after 4 to 6 hrs by q-PCR method; assay type: functional, cell-based
[24] = target: Signal transducer and activator of transcription 3 (Homo sapiens) (UniProt P40763); assay: Inhibition of STAT3 activation in human THP1 cells assessed as reduction in LPS-induced phosphorylated STAT3 expression at 0.5 uM cotreated with 0.5 uM berberine incubated for 1 hr followed by LPS challenge and measured after 4 to 6 hrs by Western blot analysis; assay type: cell-based; details: THP-1
[25] = test system: Mus musculus; assay: Anti-colitis activity against DSS-induced C57BL/6 mouse model of subchronic relapsing colitis assessed as reduction in phosphorylated STAT3 level at 0.3 mg/kg, po administered once daily for 14 days starting from day 5 post DSS-challenge by Western blot analysis; assay type: functional, organism-based

Signal transducer and activator of transcription 3 (Homo sapiens), sequence (P40763 whole entry): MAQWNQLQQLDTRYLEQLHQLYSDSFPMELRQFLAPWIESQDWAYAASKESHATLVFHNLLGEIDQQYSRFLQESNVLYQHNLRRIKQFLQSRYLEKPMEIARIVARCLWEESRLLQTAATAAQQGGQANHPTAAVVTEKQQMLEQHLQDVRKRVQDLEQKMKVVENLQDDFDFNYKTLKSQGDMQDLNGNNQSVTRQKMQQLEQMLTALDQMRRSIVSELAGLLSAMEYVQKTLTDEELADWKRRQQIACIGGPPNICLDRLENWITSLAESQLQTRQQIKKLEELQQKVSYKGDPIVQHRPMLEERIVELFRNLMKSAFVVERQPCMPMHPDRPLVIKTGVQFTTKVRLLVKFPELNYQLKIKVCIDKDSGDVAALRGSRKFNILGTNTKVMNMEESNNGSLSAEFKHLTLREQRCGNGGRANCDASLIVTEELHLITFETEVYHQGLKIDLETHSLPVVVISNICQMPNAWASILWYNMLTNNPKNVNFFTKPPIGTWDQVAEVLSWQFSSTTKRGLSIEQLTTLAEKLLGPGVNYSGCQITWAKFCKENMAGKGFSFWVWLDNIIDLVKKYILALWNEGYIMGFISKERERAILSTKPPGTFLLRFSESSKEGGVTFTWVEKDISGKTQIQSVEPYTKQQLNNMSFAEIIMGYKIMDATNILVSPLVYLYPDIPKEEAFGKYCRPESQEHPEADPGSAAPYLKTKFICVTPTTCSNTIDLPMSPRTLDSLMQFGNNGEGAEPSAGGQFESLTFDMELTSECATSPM

CCCCCCCCc1ccc(CCC(N)(CO)CO)cc1.Cl [FINGOLIMOD HYDROCHLORIDE]
Activity [1]: inactive
Activity [2]: Active
Activity [3]: Active
Activity [4]: Active
Activity [5]: Active
Activity [6]: Active
Activity [7]: Active
Activity [8]: Active
Activity [9]: Active
Activity [10]: Active
Activity [11]: Active
Activity [12]: Active
Activity [13]: Active
Activity [14]: Active
Activity [15]: Active
Activity [16]: Non-Toxic
Activity [17]: Non-Toxic
Activity [18]: Active
Activity [19]: Active
Activity [20]: Non-Toxic
Activity [21]: Active
Activity [22]: Active
Activity [23]: Active
inhibition [24]: Active
Activity [25]: Active
